Activity calls are given as the source filed them. The calls are words filed in the database; no cut-off is given here.
Legend:
HCT-116 = assay: Induction of DNA damage in human HCT-116 cells assessed as reduction in ATM phosphorylation at S1981 residue at 0.5 to 2 uM measured after 4 hrs by Western blot analysis; type: functional, cell-based; conditions: dose 0.5-2 µM
[1] = Apparent permeability of compound across apical to basal membrane in human Caco-2 cells; type: ADME, cell-based
SW-620 [2] = assay: Antitumor activity against human SW620 cells xenografted in BALB/c nude mouse model assessed as tumor growth inhibition administered orally once daily for 3 days weekly after irinotecan post treatment for 21 days by caliper method; type: functional, cell-based; conditions: dose 20-40 mg/kg, route po, time 21.0 day
SW-620 [3] = assay: Synergistic inhibition of colony formation in human SW620 cells assessed as fold increase in irinotecan IC50 at 200 nM preincubated for 1 hr followed by irinotecan addition and measured after 1 week by crystal violet staining based […] assay; type: functional; conditions: time 169 hrs

CC(C)NC(=O)N(C)c1cnc2ccc(-c3ccc(OCCCN4CCCCC4)nc3)cc2n1
Activity (HCT-116): Active | Papp A→B [1]: 1.02 ×10⁻⁶ cm/s | Activity (SW-620 [2]): Dose-Dependent Effect | fold change (FC) (SW-620 [3]): 11.5
